The values that follow come from ChEMBL document CHEMBL1165894, “Synthesis and pharmacological characterization of a novel nitric oxide-releasing diclofenac derivative containing a benzofuroxan moiety” (Eur J Med Chem, 2010).

The test system of data set [1] is Rattus norvegicus. The data set can be described thus: Antiinflammatory activity in Wistar rat assessed as reduction in carrageenan-induced paw edema at 100 mg/kg, ip after 0.5 to 4 hrs. In kind it is functional, organism-based. Also noted: dose 100 mg/kg. Background: In the carrageenan paw model, swelling and tenderness develop within hours.
Data set [2] relates to Rattus norvegicus. The data set is described as follows: Toxicity in Wistar rat assessed as reduction in PGE2 level in gastric mucosa at 30 mg/kg, po. It is filed as organism-based. Also noted: dose 30 mg/kg, route oral. The settings on record: in vivo.
Data set [3] concerns Blood. The data set is described as follows: Antiinflammatory activity in human whole blood assessed as inhibition of LPS-induced production at 0.01 to 100 uM after 18 hrs by ELISA. (In an ELISA, binding on a coated surface is turned into a signal by an enzyme label.)
Data set [4] deals with Blood. The data set can be described thus: Antiinflammatory activity in human whole blood assessed as inhibition of LPS-induced PGE2 production at 1 to 100 uM after 18 hrs by ELISA. It is filed as functional, tissue-based.
Data set [5] is described as follows: Induction of NO release in phosphate buffer containing L-cysteine at pH 7.4 assessed as nitrite level by Griess assay. In kind it is physicochemical.

The source made the active and inactive calls. No cut-off for these calls is given here.

`O=C(Cc1ccccc1Nc1c(Cl)cccc1Cl)OCc1ccc2no[n+]([O-])c2c1`: the outcome with Rattus norvegicus [1], in the data set with Blood [3] and with Blood [4] was Active. The Activity entry with Rattus norvegicus [2] is given as “Toxic”; in data set [5] it was 372 nM.
